Reference: US7468388B2, “Dimeric compounds and their use as anti-viral agents” (priority 2001, dated 2008)
≈ marks a conversion by molar mass, not a printed value.

Key:
[1] = test system: B/Yamaneshl/166/98 BVLV007; assay: Plaque reduction assay (PRA) in MDCK cells; type: cell-based; conditions: Influenza B virus, read-out: EC50 PRA B/Yam*, reduces plaque numbers by 50%, MDCK cells
[2] = test system: A/New Caledonia/20/99 BVLV008 (H1N1); assay: Plaque reduction assay (PRA) in MDCK cells; type: cell-based; conditions: reduces plaque numbers by 50%
[3] = test system: A/W SN/33 BVLV09 (H1N1); assay: Plaque reduction assay (PRA) in MDCK cells; type: cell-based, influenza A (H1N1); conditions: reduces plaque numbers by 50%
[4] = test system: B/Harbin/7/95 BVLV008; assay: Plaque reduction assay (PRA) in MDCK cells; type: cell-based; conditions: Influenza B virus, read-out: EC50 PRA B/Harb*
[5] = test system: A/Panama/2007/99 BVLV008 (H3N2); assay: Plaque reduction assay (PRA) in MDCK cells; type: cell-based; conditions: reduces plaque numbers by 50%
[6] = test system: Influenza A/Sydney/5/97; assay: Cytopathic effect (CPE) assay in MDCK cells, MTT readout; type: cell-based; conditions: concentration that inhibited CPE by 50%, up to 72 hours

| Compound | EC50 [1] | EC50 PRA A/New* [2] | EC50 PRA A/W SN* [3] | EC50 [4] | EC50 PRA A/Pan* [5] | ID50 A/Sydney/5/97+ [6] |
| --- | --- | --- | --- | --- | --- | --- |
| NC12CC3CC(CC(C3)C1)C2 [Amantadine] | 2.08 mg/L (≈ 13.8 µM) | – | – | – | – | – |
| CC(=O)N[C@@H]1C(N=C(N)N)C=C(C(=O)O)O[C@H]1[C@H](O)[C@H](O)CO (single isomer, unassigned) [Compound A, 4-guanidino-2-deoxy-2,3-dehydro-N-acetylneuraminic acid] | – | 0.00023 mg/L (≈ 0.000692 µM) | > 0.1 mg/L | 0.00019 mg/L (≈ 0.000572 µM) | 0.003 mg/L (≈ 0.00903 µM) | 0.023 ± 0.024 mg/L (≈ 0.0692 µM) |
